Legend:
nAChR = format: binding, bovine
[1] = test system: unmyelinated primary afferent sensory nerves; settings: rat, in vivo

Molecule | displacement of 3H-epibatidine binding (nAChR) | further results
C[N+]1(C)CCN(c2ccccc2)CC1.[I-] [DMPP, 1,1-dimethyl-4-phenylpiperazinium iodide] | displaced | 
Clc1ccc(C2CC3CCC2N3)cn1 (stereo not drawn) [^3H-epibatidine, epibatidine] |  | Hill coefficient of 3H-epibatidine binding (nAChR): 1.08
C[N+](C)(C)CCOC(N)=O [carbachol] | displaced | 
Nc1cc[nH]c(=O)n1 [cytosine] | displaced | 
CN1CCCC1c1cccnc1 (stereo not drawn) [nicotine] | displaced | 
ω-conotoxin GVIA |  | inhibition of the vascular response to LFES of sensory nerves [1]: significant inhibition

— patent US7348400B2 (priority 2001, dated 2008)
